{"source": "patent US8952024B2", "about": "“Herbicidal pyrimidone derivatives” (E I du Pont de Nemours and Company, priority 2009, dated 2015)", "type_in_all_cases": "in vivo", "key": {"[1]": {"tested_on": "velvetleaf (Abutilon theophrasti)", "assay": "Test A pre-/postemergence plant response", "method_in_brief": "(§1)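 Greenhouse pots of loam/sand received directed preemergence soil sprays or postemergence sprays (plants 2–10 cm, 1–2 leaf stage), compounds formulated in non-phytotoxic solvent with surfactant. Injury was rated visually versus untreated controls after about ten days on a 0 (no effect) to 100 (complete control) scale.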"}, "[2]": {"tested_on": "wheat (Triticum aestivum)", "assay": "Test A pre-/postemergence plant response", "method_in_brief": "as §1"}, "[3]": {"tested_on": "large crabgrass (Digitaria sanguinalis)", "assay": "Test A pre-/postemergence plant response", "method_in_brief": "as §1"}, "[4]": {"tested_on": "morningglory (Ipomoea spp.)", "assay": "Test A pre-/postemergence plant response", "conditions": "approx. ten days; for Plant response rating, Morningglory: 500 g ai/ha", "method_in_brief": "as §1"}, "[5]": {"tested_on": "cocklebur (Xanthium strumarium)", "assay": "Test B pre-/postemergence plant response", "method_in_brief": "(§2)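 Seeds were sown in loam soil/sand blend and treated preemergence with compound in non-phytotoxic solvent mixture containing surfactant; postemergence sprays, same formulation, went onto plants 2 to 18 cm (1- to 4-leaf stage) in peat-based planting medium. Greenhouse 13 to 15 days, then visual rating versus untreated controls, 0 (no effect) to 100 (complete control).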"}, "[6]": {"tested_on": "goosegrass (Eleusine indica)", "assay": "Test B pre-/postemergence plant response", "method_in_brief": "as §2"}, "[7]": {"tested_on": "green foxtail (Setaria viridis)", "assay": "Test B pre-/postemergence plant response", "method_in_brief": "as §2"}, "[8]": {"tested_on": "morningglory (Ipomoea coccinea)", "assay": "Test B pre-/postemergence plant response", "method_in_brief": "as §2"}, "[9]": {"tested_on": "giant foxtail (Setaria faberii)", "assay": "Test B pre-/postemergence plant response", "method_in_brief": "as §2"}, "[10]": {"tested_on": "wheat (Triticum aestivum)", "assay": "Test B pre-/postemergence plant response", "method_in_brief": "as §2"}, "[11]": {"tested_on": "downy bromegrass (Bromus tectorum)", "assay": "Test B pre-/postemergence plant response", "method_in_brief": "as §2"}, "[12]": {"tested_on": "kochia (Kochia scoparia)", "assay": "Test B pre-/postemergence plant response", "method_in_brief": "as §2"}, "[13]": {"tested_on": "pigweed (Amaranthus retroflexus)", "assay": "Test B pre-/postemergence plant response", "method_in_brief": "as §2"}, "[14]": {"conditions": "Postemergence, 125 g ai/ha, visual injury, 0 to 100 scale (0 no effect, 100 complete control), approx. ten days"}, "[15]": {"conditions": "Postemergence, 500 g ai/ha, 0 to 100 scale, 0 = no effect, 100 = complete control, approx. ten days"}, "[16]": {"conditions": "Preemergence, 125 g ai/ha, 0 to 100 scale, 0 = no effect, 100 = complete control"}, "[17]": {"conditions": "Preemergence, 500 g ai/ha, visual injury, 0 to 100 scale (0 no effect, 100 complete control), approx. ten days"}, "[18]": {"conditions": "31 g ai/ha, postemergence, scale 0 to 100, 0 is no effect, 100 is complete control"}, "[19]": {"conditions": "250 g ai/ha, Preemergence, 0 to 100 scale"}, "[20]": {"conditions": "Postemergence, 62 g ai/ha, scale 0 (no effect) to 100 (complete control), 13 to 15 days"}, "[21]": {"conditions": "Postemergence, 125 g ai/ha, visual rating after 13 to 15 days, scale 0 (no effect) to 100 (complete control)"}, "[22]": {"conditions": "Postemergence, 250 g ai/ha, scale 0 to 100 (0 no effect, 100 complete control)"}, "[23]": {"conditions": "Preemergence, 31 g ai/ha, scale 0 to 100 (0 no effect, 100 complete control)"}, "[24]": {"conditions": "Preemergence, 62 g ai/ha, scale 0 to 100, 0 no effect, 100 complete control"}, "[25]": {"conditions": "Preemergence, 125 g ai/ha, 0 to 100 scale"}}, "data": [{"compound": "Cc1ccc(F)c(-n2c(-c3ccccc3)ncc(C(=O)C3=C(O)CCCC3=O)c2=O)c1", "note": "[Compound 51]", "values": [{"measurement": "Velvetleaf plant response rating", "setting": "[1]; [14]", "value": 100}, {"measurement": "Plant response rating, Velvetleaf", "setting": "[1]; [15]", "value": 100}, {"measurement": "Plant response rating, Velvetleaf", "setting": "[1]; [16]", "value": 70}, {"measurement": "Plant response rating, Velvetleaf", "setting": "[1]; [17]", "value": 90}, {"measurement": "Wheat plant response rating", "setting": "[2]; [14]", "value": 0}, {"measurement": "Plant response rating, Wheat", "setting": "[2]; [15]", "value": 0}, {"measurement": "Plant response rating, Wheat", "setting": "[2]; [16]", "value": 0}, {"measurement": "Plant response rating, Wheat", "setting": "[2]; [17]", "value": 0}, {"measurement": "Crabgrass, Large plant response rating", "setting": "[3]; [14]", "value": 90}, {"measurement": "Plant response rating, Crabgrass, Large", "setting": "[3]; [15]", "value": 100}, {"measurement": "Plant response rating, Crabgrass, Large", "setting": "[3]; [16]", "value": 30}, {"measurement": "Plant response rating, Crabgrass, Large", "setting": "[3]; [17]", "value": 100}, {"measurement": "Morningglory plant response rating", "setting": "[4]; Postemergence, 125 g ai/ha, visual injury, 0 to 100 scale (0 no effect, 100 complete control)", "value": 100}, {"measurement": "Plant response rating, Morningglory", "setting": "[4]; Postemergence, 0 to 100 scale, 0 = no effect, 100 = complete control", "value": 100}, {"measurement": "Plant response rating, Morningglory", "setting": "[4]; Preemergence, visual injury, 0 to 100 scale (0 no effect, 100 complete control)", "value": 90}, {"measurement": "Plant response rating, Cocklebur", "setting": "[5]; [18]", "value": 85}, {"measurement": "Plant response rating, Cocklebur", "setting": "[5]; [19]", "value": 75}, {"measurement": "Plant response rating, Cocklebur", "setting": "[5]; [20]", "value": 85}, {"measurement": "Plant response rating, Cocklebur", "setting": "[5]; [21]", "value": 90}, {"measurement": "Plant response rating, Cocklebur", "setting": "[5]; [22]", "value": 90}, {"measurement": "Plant response rating, Cocklebur", "setting": "[5]; [23]", "value": 0}, {"measurement": "Plant response rating, Cocklebur", "setting": "[5]; [24]", "value": 0}, {"measurement": "Cocklebur plant response rating", "setting": "[5]; [25]", "value": 20}, {"measurement": "Plant response rating, Goosegrass", "setting": "[6]; [18]", "value": 75}, {"measurement": "Plant response rating, Goosegrass", "setting": "[6]; [19]", "value": 100}, {"measurement": "Plant response rating, Goosegrass", "setting": "[6]; [20]", "value": 80}, {"measurement": "Plant response rating, Goosegrass", "setting": "[6]; [21]", "value": 85}, {"measurement": "Plant response rating, Goosegrass", "setting": "[6]; [22]", "value": 85}, {"measurement": "Plant response rating, Goosegrass", "setting": "[6]; [23]", "value": 98}, {"measurement": "Goosegrass plant response rating", "setting": "[6]; [25]", "value": 100}, {"measurement": "Plant response rating, Foxtail, Green", "setting": "[7]; [18]", "value": 85}, {"measurement": "Plant response rating, Foxtail, Green", "setting": "[7]; [19]", "value": 100}, {"measurement": "Plant response rating, Foxtail, Green", "setting": "[7]; [20]", "value": 95}, {"measurement": "Plant response rating, Foxtail, Green", "setting": "[7]; [21]", "value": 95}, {"measurement": "Plant response rating, Foxtail, Green", "setting": "[7]; [22]", "value": 100}, {"measurement": "Plant response rating, Foxtail, Green", "setting": "[7]; [23]", "value": 50}, {"measurement": "Plant response rating, Foxtail, Green", "setting": "[7]; [24]", "value": 50}, {"measurement": "Foxtail, Green plant response rating", "setting": "[7]; [25]", "value": 98}, {"measurement": "Plant response rating, Morningglory", "setting": "[8]; [18]", "value": 75}, {"measurement": "Plant response rating, Morningglory", "setting": "[8]; [19]", "value": 70}, {"measurement": "Plant response rating, Morningglory", "setting": "[8]; [20]", "value": 80}, {"measurement": "Plant response rating, Morningglory", "setting": "[8]; [21]", "value": 90}, {"measurement": "Plant response rating, Morningglory", "setting": "[8]; [22]", "value": 100}, {"measurement": "Plant response rating, Morningglory", "setting": "[8]; [23]", "value": 0}, {"measurement": "Plant response rating, Morningglory", "setting": "[8]; [24]", "value": 20}, {"measurement": "Morningglory plant response rating", "setting": "[8]; [25]", "value": 20}, {"measurement": "Plant response rating, Foxtail, Giant", "setting": "[9]; [18]", "value": 80}, {"measurement": "Plant response rating, Foxtail, Giant", "setting": "[9]; [19]", "value": 75}, {"measurement": "Plant response rating, Foxtail, Giant", "setting": "[9]; [20]", "value": 80}, {"measurement": "Plant response rating, Foxtail, Giant", "setting": "[9]; [21]", "value": 85}, {"measurement": "Plant response rating, Foxtail, Giant", "setting": "[9]; [22]", "value": 85}, {"measurement": "Plant response rating, Foxtail, Giant", "setting": "[9]; [23]", "value": 0}, {"measurement": "Plant response rating, Foxtail, Giant", "setting": "[9]; [24]", "value": 45}, {"measurement": "Foxtail, Giant plant response rating", "setting": "[9]; [25]", "value": 50}, {"measurement": "Plant response rating, Wheat", "setting": "[10]; [18]", "value": 5}, {"measurement": "Plant response rating, Wheat", "setting": "[10]; [19]", "value": 10}, {"measurement": "Plant response rating, Wheat", "setting": "[10]; [20]", "value": 10}, {"measurement": "Plant response rating, Wheat", "setting": "[10]; [21]", "value": 10}, {"measurement": "Plant response rating, Wheat", "setting": "[10]; [22]", "value": 30}, {"measurement": "Plant response rating, Wheat", "setting": "[10]; [23]", "value": 0}, {"measurement": "Wheat plant response rating", "setting": "[10]; [25]", "value": 0}, {"measurement": "Plant response rating, Bromegrass, Downy", "setting": "[11]; [18]", "value": 50}, {"measurement": "Plant response rating, Bromegrass, Downy", "setting": "[11]; [19]", "value": 40}, {"measurement": "Plant response rating, Bromegrass, Downy", "setting": "[11]; [20]", "value": 50}, {"measurement": "Plant response rating, Bromegrass, Downy", "setting": "[11]; [21]", "value": 55}, {"measurement": "Plant response rating, Bromegrass, Downy", "setting": "[11]; [22]", "value": 60}, {"measurement": "Plant response rating, Bromegrass, Downy", "setting": "[11]; [23]", "value": 0}, {"measurement": "Plant response rating, Bromegrass, Downy", "setting": "[11]; [24]", "value": 0}, {"measurement": "Bromegrass, Downy plant response rating", "setting": "[11]; [25]", "value": 5}, {"measurement": "Plant response rating, Kochia", "setting": "[12]; [18]", "value": 20}, {"measurement": "Plant response rating, Kochia", "setting": "[12]; [20]", "value": 20}, {"measurement": "Plant response rating, Kochia", "setting": "[12]; [21]", "value": 25}, {"measurement": "Plant response rating, Kochia", "setting": "[12]; [22]", "value": 35}, {"measurement": "Plant response rating, Pigweed", "setting": "[13]; [18]", "value": 85}, {"measurement": "Plant response rating, Pigweed", "setting": "[13]; [19]", "value": 100}, {"measurement": "Plant response rating, Pigweed", "setting": "[13]; [20]", "value": 95}, {"measurement": "Plant response rating, Pigweed", "setting": "[13]; [21]", "value": 98}, {"measurement": "Plant response rating, Pigweed", "setting": "[13]; [22]", "value": 100}, {"measurement": "Plant response rating, Pigweed", "setting": "[13]; [23]", "value": 100}, {"measurement": "Pigweed plant response rating", "setting": "[13]; [25]", "value": 100}]}]}
